Measurements: patent publication US5340822A, “Polycyclic amine compounds and their enantiomers, their method of preparation and pharmaceutical compositions in which they are present” (Elf Sanofi, priority 1991, dated 1994)
Where a name gives a salt, the structure may show the parent alone.

What was measured:
[1] = tested on: NK1 receptor; details: D. Regoli, 1988 and 1989; cited from earlier work
[2] = biological target: T1, binding of neurokinin A (NKA) (Rattus norvegicus, UniProt P16610); experiment: antagonism of the binding of NKA on rat duodenal membranes; details: read-out: Ki, antagonizes the binding of neurokinin A
T1 construct: tests performed on rat duodenal membranes; from tissue; host or cells: rat duodenal membranes
T1 sequence (P16610 1-390): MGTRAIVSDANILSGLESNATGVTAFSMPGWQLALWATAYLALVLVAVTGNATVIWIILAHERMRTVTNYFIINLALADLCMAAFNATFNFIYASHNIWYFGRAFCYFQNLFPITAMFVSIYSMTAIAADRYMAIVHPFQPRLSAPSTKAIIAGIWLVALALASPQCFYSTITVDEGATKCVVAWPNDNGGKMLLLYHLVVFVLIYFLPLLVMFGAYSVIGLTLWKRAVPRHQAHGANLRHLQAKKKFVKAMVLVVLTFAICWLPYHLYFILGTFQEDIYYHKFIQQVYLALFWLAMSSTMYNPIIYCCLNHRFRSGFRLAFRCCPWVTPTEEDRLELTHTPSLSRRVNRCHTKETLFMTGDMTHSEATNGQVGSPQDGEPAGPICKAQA

[3] = biological target: binding of substance P; experiment: antagonism of the binding of substance P on rat cortical membranes and IM9 lymphoblasts; details: rat cortical membranes and/or IM9 lymphoblasts (not said which); read-out: Ki, antagonizes the binding of substance P
[4] = biological target: T2, binding of eledoisin (Rattus norvegicus, UniProt P16177); experiment: antagonism of the binding of eledoisin on rat membranes; details: read-out: Ki, antagonizes the binding of eledoisin
T2 construct: tests performed on rat membranes; from tissue
T2 sequence (P16177 1-452): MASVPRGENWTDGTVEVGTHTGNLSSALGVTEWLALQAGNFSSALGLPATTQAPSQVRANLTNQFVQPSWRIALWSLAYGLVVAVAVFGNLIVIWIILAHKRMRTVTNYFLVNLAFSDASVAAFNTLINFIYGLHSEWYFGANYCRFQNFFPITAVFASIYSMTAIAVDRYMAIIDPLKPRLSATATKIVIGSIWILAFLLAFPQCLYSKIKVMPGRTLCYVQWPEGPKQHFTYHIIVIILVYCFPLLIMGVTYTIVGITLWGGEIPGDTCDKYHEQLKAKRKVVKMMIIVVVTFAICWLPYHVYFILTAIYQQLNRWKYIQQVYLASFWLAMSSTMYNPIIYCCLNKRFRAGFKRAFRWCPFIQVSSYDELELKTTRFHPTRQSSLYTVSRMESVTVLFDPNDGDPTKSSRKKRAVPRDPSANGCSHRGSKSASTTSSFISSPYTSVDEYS
Description: Foster et al., Br. J. Pharmacol., 1988, 94, 602-608.
Eledoisin is a peptide of batrachian origin which is equivalent to neurokinin B.

Compound: [Sar^9,Met-(O2)^11 ]SP
- selectivity for the NK1 receptor [1]: thought to have a selectivity for the NK1

Compound: O=C(c1ccccc1)N1CCC(CCN2CCC(O)(c3ccccc3)CC2)(c2ccc(Cl)c(Cl)c2)C1 (stereo not shown) [Compound 7]
- Ki [2]: 1.3 nM

Compound: O=C(Cc1ccccc1)N1CCCC(CCN2CCC(Cc3ccccc3)CC2)(c2ccc(Cl)c(Cl)c2)C1 (stereo not shown) [Compound 2, 3-[2-(4-Benzylpiperidin-1-yl)ethyl]-3-(3,4-dichlorophenyl)-1-phenylacetylpiperidine hydrochloride]
- Ki [3]: 8.3 nM

Compound: O=C1CCC(CCN2CCC(O)(c3ccccc3)CC2)(c2ccc(Cl)c(Cl)c2)CN1Cc1ccccc1 (stereo not shown) [Compound 3]
- Ki [4]: 200 nM
